Test system: Energy system protein genes
Assay: DNA chip mRNA expression in yeast, energy system protein genes (Table 4)
Assay type: cell-based, Saccharomyces cerevisiae S288C
Method in brief: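 Whole-genome yeast DNA chip hybridization (65° C., >12 h) of Cy-labeled cDNA from S288C cells exposed 2 h at 25° C. to a sub-lethal toxicant dose in YPD; value is intensity relative to chemical-free control.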

COc1cc(CNC(=O)CCCCC=CC(C)C)ccc1O [(12), 8-methyl-N-vanillyl-6-nonenamide]
The level of expressed mRNA in the presence of chemical substance/The level of expressed mRNA in the absence of chemical substance (yeast gene YJR048W): 0.8 | The level of expressed mRNA in the presence of chemical substance/The level of expressed mRNA in the absence of chemical substance (yeast gene YJR121W, cells incubated two hours with the chemical substance): 0.8 | The level of expressed mRNA in the presence of chemical substance/The level of expressed mRNA in the absence of chemical substance (yeast gene YJR155W): 1.0 | The level of expressed mRNA in the presence of chemical substance/The level of expressed mRNA in the absence of chemical substance (yeast gene YKL016C, cells incubated two hours with the chemical substance): 1.0 | The level of expressed mRNA in the presence of chemical substance/The level of expressed mRNA in the absence of chemical substance (yeast gene YKL060C, cells incubated two hours with the chemical substance): 1.3 | The level of expressed mRNA in the presence of chemical substance/The level of expressed mRNA in the absence of chemical substance (yeast gene YKL141W, cells incubated two hours with the chemical substance): 0.8 | The level of expressed mRNA in the presence of chemical substance/The level of expressed mRNA in the absence of chemical substance (yeast gene YKL148C, cells incubated two hours with the chemical substance): 0.8 | The level of expressed mRNA in the presence of chemical substance/The level of expressed mRNA in the absence of chemical substance (yeast gene YKR009C, cells incubated two hours with the chemical substance): 1.0 | The level of expressed mRNA in the presence of chemical substance/The level of expressed mRNA in the absence of chemical substance (yeast gene YKR058W, cells incubated two hours with the chemical substance, 25° C., YPD medium): 0.9 | The level of expressed mRNA in the presence of chemical substance/The level of expressed mRNA in the absence of chemical substance (yeast gene YKR097W): 1.8 | The level of expressed mRNA in the presence of chemical substance/The level of expressed mRNA in the absence of chemical substance (yeast gene YLL041C, cells incubated two hours with the chemical substance): 0.8 | The level of expressed mRNA in the presence of chemical substance/The level of expressed mRNA in the absence of chemical substance (yeast gene YLR038C, cells incubated two hours with the chemical substance): 0.6 | The level of expressed mRNA in the presence of chemical substance/The level of expressed mRNA in the absence of chemical substance (yeast gene YLR044C, cells incubated two hours with the chemical substance): 1.4 | The level of expressed mRNA in the presence of chemical substance/The level of expressed mRNA in the absence of chemical substance (yeast gene YLR134W, cells incubated two hours with the chemical substance): 1.2 | The level of expressed mRNA in the presence of chemical substance/The level of expressed mRNA in the absence of chemical substance (yeast gene YLR258W, cells incubated two hours with the chemical substance): 0.9 | The level of expressed mRNA in the presence of chemical substance/The level of expressed mRNA in the absence of chemical substance (yeast gene YLR284C, cells incubated two hours with the chemical substance): 0.6 | The level of expressed mRNA in the presence of chemical substance/The level of expressed mRNA in the absence of chemical substance (yeast gene YLR295C, cells incubated two hours with the chemical substance, 25° C., YPD medium): 0.5 | The level of expressed mRNA in the presence of chemical substance/The level of expressed mRNA in the absence of chemical substance (yeast gene YLR304C, cells incubated two hours with the chemical substance): 1.0 | The level of expressed mRNA in the presence of chemical substance/The level of expressed mRNA in the absence of chemical substance (yeast gene YLR345W): 1.6 | The level of expressed mRNA in the presence of chemical substance/The level of expressed mRNA in the absence of chemical substance (yeast gene YLR354C, cells incubated two hours with the chemical substance): 1.2 | The level of expressed mRNA in the presence of chemical substance/The level of expressed mRNA in the absence of chemical substance (yeast gene YLR377C, cells incubated two hours with the chemical substance): 0.6 | The level of expressed mRNA in the presence of chemical substance/The level of expressed mRNA in the absence of chemical substance (yeast gene YLR395C, cells incubated two hours with the chemical substance): 0.6 | The level of expressed mRNA in the presence of chemical substance/The level of expressed mRNA in the absence of chemical substance (yeast gene YML054C): 1.8 | The level of expressed mRNA in the presence of chemical substance/The level of expressed mRNA in the absence of chemical substance (yeast gene YML087C): 0.8 | The level of expressed mRNA in the presence of chemical substance/The level of expressed mRNA in the absence of chemical substance (yeast gene YML120C, cells incubated two hours with the chemical substance): 0.9 | The level of expressed mRNA in the presence of chemical substance/The level of expressed mRNA in the absence of chemical substance (yeast gene YML129C, cells incubated two hours with the chemical substance): 0.8 | The level of expressed mRNA in the presence of chemical substance/The level of expressed mRNA in the absence of chemical substance (yeast gene YMR073C, cells incubated two hours with the chemical substance): 0.8 | The level of expressed mRNA in the presence of chemical substance/The level of expressed mRNA in the absence of chemical substance (yeast gene YMR118C): 0.8 | The level of expressed mRNA in the presence of chemical substance/The level of expressed mRNA in the absence of chemical substance (yeast gene YMR205C, cells incubated two hours with the chemical substance): 1.1 | The level of expressed mRNA in the presence of chemical substance/The level of expressed mRNA in the absence of chemical substance (yeast gene YMR261C, cells incubated two hours with the chemical substance): 0.9 | The level of expressed mRNA in the presence of chemical substance/The level of expressed mRNA in the absence of chemical substance (yeast gene YMR267W, cells incubated two hours with the chemical substance, 25° C., YPD medium): 0.8 | The level of expressed mRNA in the presence of chemical substance/The level of expressed mRNA in the absence of chemical substance (yeast gene YMR323W, cells incubated two hours with the chemical substance): 1.2 | The level of expressed mRNA in the presence of chemical substance/The level of expressed mRNA in the absence of chemical substance (yeast gene YNL071W): 1.3 | The level of expressed mRNA in the presence of chemical substance/The level of expressed mRNA in the absence of chemical substance (yeast gene YNL202W, cells incubated two hours with the chemical substance): 0.9 | The level of expressed mRNA in the presence of chemical substance/The level of expressed mRNA in the absence of chemical substance (yeast gene YNL241C): 2.0 | The level of expressed mRNA in the presence of chemical substance/The level of expressed mRNA in the absence of chemical substance (yeast gene YNL331C): 0.9 | The level of expressed mRNA in the presence of chemical substance/The level of expressed mRNA in the absence of chemical substance (yeast gene YOL086C, cells incubated two hours with the chemical substance): 1.3 | The level of expressed mRNA in the presence of chemical substance/The level of expressed mRNA in the absence of chemical substance (yeast gene YOL165C): 0.8 | The level of expressed mRNA in the presence of chemical substance/The level of expressed mRNA in the absence of chemical substance (yeast gene YOR142W, cells incubated two hours with the chemical substance): 0.8 | The level of expressed mRNA in the presence of chemical substance/The level of expressed mRNA in the absence of chemical substance (yeast gene YOR178C, cells incubated two hours with the chemical substance): 1.7 | The level of expressed mRNA in the presence of chemical substance/The level of expressed mRNA in the absence of chemical substance (yeast gene YOR388C, cells incubated two hours with the chemical substance): 0.7 | The level of expressed mRNA in the presence of chemical substance/The level of expressed mRNA in the absence of chemical substance (yeast gene YPL031C, cells incubated two hours with the chemical substance): 0.8 | The level of expressed mRNA in the presence of chemical substance/The level of expressed mRNA in the absence of chemical substance (yeast gene YPL061W, cells incubated two hours with the chemical substance): 1.0 | The level of expressed mRNA in the presence of chemical substance/The level of expressed mRNA in the absence of chemical substance (yeast gene YPL088W): 3.6 | The level of expressed mRNA in the presence of chemical substance/The level of expressed mRNA in the absence of chemical substance (yeast gene YPL171C): 1.4 | The level of expressed mRNA in the presence of chemical substance/The level of expressed mRNA in the absence of chemical substance (yeast gene YPL240C): 0.8 | The level of expressed mRNA in the presence of chemical substance/The level of expressed mRNA in the absence of chemical substance (yeast gene YPL262W, cells incubated two hours with the chemical substance): 1.1 | The level of expressed mRNA in the presence of chemical substance/The level of expressed mRNA in the absence of chemical substance (yeast gene YPL275W, cells incubated two hours with the chemical substance): 0.6 | The level of expressed mRNA in the presence of chemical substance/The level of expressed mRNA in the absence of chemical substance (yeast gene YPL276W, cells incubated two hours with the chemical substance): 0.6 | The level of expressed mRNA in the presence of chemical substance/The level of expressed mRNA in the absence of chemical substance (yeast gene YPR048W, cells incubated two hours with the chemical substance): 0.8 | The level of expressed mRNA in the presence of chemical substance/The level of expressed mRNA in the absence of chemical substance (yeast gene YPR184W, cells incubated two hours with the chemical substance): 1.4

— US8192962B2, “Processes for detecting toxic substances” (Daikin Industries, Ltd., priority 2001, dated 2012)
